{"source": "patent US20220404341A1", "about": "“METHODS AND APPARATUS FOR MEASURING IMMUNE MEDIATED TUMOROID RESPONSES” (VITROSCAN B.V., priority 2019, published 2022)", "format_in_all_cases": "cell-based, human", "key": {"ovarian cancer tumoroids": {"tested_on": "ovarian cancer tumoroids", "assay": "ex vivo 3D patient derived tumour culture with 3D imaging, ovarian cancer samples", "conditions": "for area size of small objects: FIG. 5 (same sample as FIG. 4)"}, "[1]": {"tested_on": "patient derived tumour cultures", "assay": "Selection Factor (tumoroids' area decrease) across patient samples", "conditions": "for immune reaction reducing the number of tumour cells (Selection Factor metric across samples): FIGS. 8 and 9, alone or in combination, naïve patient sample; for Tumoroids' area decrease (%) as Selection Factor, effect when used alone: experiments shown in FIG. 8"}, "lung tumour sample": {"tested_on": "lung tumour sample", "assay": "ex vivo 3D patient derived tumour culture with 3D imaging, lung tumour sample", "conditions": "FIG. 6"}, "IFN-γ": {"tested_on": "IFN-γ", "assay": "IFN-γ production in treated patient derived tumour cultures", "conditions": "FIG. 7; IFN-γ is secreted by activated T-cells"}, "[2]": {"tested_on": "Mesothelioma tumour sample", "assay": "ex vivo 3D patient derived tumour culture with 3D imaging, mesothelioma sample", "conditions": "FIG. 3"}}, "data": [{"compound": "pembrolizumab", "values": [{"measurement": "immune-mediated tumoroid killing effect (area size reduction of tumoroid clusters)", "setting": "ovarian cancer tumoroids; ovarian tumour sample, FIG. 4", "value": "immune-mediated tumoroid killing effect"}, {"measurement": "area size of small objects", "setting": "ovarian cancer tumoroids; ovarian tumour sample", "value": "area size increase of small objects"}, {"measurement": "immune reaction reducing the number of tumour cells (Selection Factor metric across samples)", "setting": "[1]", "value": "able to start an immune reaction that effectively reduced the number of tumour cells"}, {"measurement": "Tumoroids' area decrease (%) as Selection Factor, effect when used alone", "setting": "[1]", "value": "do not show any effect when used alone"}, {"measurement": "immune-mediated tumoroid killing effect", "setting": "lung tumour sample", "value": "immune-mediated tumoroid killing effect"}]}, {"compound": "nivolumab", "values": [{"measurement": "immune reaction reducing the number of tumour cells (Selection Factor metric across samples)", "setting": "[1]", "value": "able to start an immune reaction that effectively reduced the number of tumour cells"}, {"measurement": "Tumoroids' area decrease (%) as Selection Factor, effect when used alone", "setting": "[1]", "value": "do not show any effect when used alone"}, {"measurement": "immune-mediated tumoroid killing effect", "setting": "lung tumour sample", "value": "immune-mediated tumoroid killing effect"}]}, {"compound": "ipilimumab", "values": [{"measurement": "IFN-γ production", "setting": "IFN-γ", "value": "increased"}, {"measurement": "immune-mediated tumoroid killing effect", "setting": "[2]", "value": "immune-mediated tumoroid killing effect"}, {"measurement": "activating native immune cells to kill tumoroids (total area of objects larger than 422 μm^2 and of objects smaller than 160 μm^2)", "setting": "ovarian cancer tumoroids; ovarian cancer samples of FIG. 1, one-sided Wilcoxon test", "value": "effective in activating native immune cells to kill ovarian cancer tumoroids"}, {"measurement": "activating native immune cells to kill tumoroids", "setting": "ovarian cancer tumoroids; ovarian cancer samples of FIG. 2", "value": "does not show effectiveness in activating native immune cells to kill tumoroids"}, {"measurement": "immune reaction reducing the number of tumour cells (Selection Factor metric across samples)", "setting": "[1]", "value": "able to start an immune reaction that effectively reduced the number of tumour cells"}, {"measurement": "immune-mediated tumoroid killing effect", "setting": "lung tumour sample", "value": "immune-mediated tumoroid killing effect"}]}, {"compound": "Nc1ncnc2c1ncn2[C@@H]1O[C@@H]2COP(=O)([S-])O[C@@H]3[C@H](O)[C@@H](COP([O-])(=S)O[C@H]2[C@H]1O)O[C@H]3n1cnc2c(N)ncnc21.[Na+].[Na+]", "note": "(stereo partly shown) [ADU-S100]", "values": [{"measurement": "area size of small objects", "setting": "ovarian cancer tumoroids; ovarian tumour sample", "value": "area size increase of small objects"}]}, {"compound": "O=C(c1cc(Cc2n[nH]c(=O)c3ccccc23)ccc1F)N1CCN(C(=O)C2CC2)CC1", "note": "[olaparib]", "values": [{"measurement": "immune reaction reducing the number of tumour cells (Selection Factor metric across samples)", "setting": "[1]", "value": "able to start an immune reaction that effectively reduced the number of tumour cells"}]}]}
